# According to patent US20220380331A1, “TREATMENT OF CONDITIONS OF THE NERVOUS SYSTEM” (priority 2019, published 2022):
# Legend:
# [1] = system: PNNs in the spinal cord; test: Short-term (10 days) PNNi administration, histology of PNN/ECM components in the CNS; assay type: in vivo, rat
# Procedure: Animals were given an overdose of sodium pentobarbital (Pentoject; Henry Schein; 200 mg/kg; intraperitoneal injection) to deeply […] without halting cardiac function. A transcardial perfusion (Gage et al., 2012) was then performed using sodium phosphate buffer (PB; 0.12 M sodium phosphate monobasic; 0.1 M NaOH; pH 7.4) followed by 4% paraformaldehyde (PFA; in PB; pH 7.4) for tissue fixation. The brain and spinal cord were dissected out, post-fixed in PFA (4%; 4° C.) overnight and cryoprotected in 30% sucrose solution (30% v/w sucrose in PB; 4° C.) until tissue saturation. The left brain hemisphere and appropriate spinal cord segments were excised and frozen in optimum temperature medium (OCT; Leica FSC 22 Frozen Section Media; Leica Biosystems) before storage at -80° C. until sectioning. Sectioning of tissue was performed using a cryostat (Leica CM1850; Leica Biosystems) into 40 μm transverse sections for free-floating sections and collected into 48-well plates containing physiological buffer solution (PBS; 0.13 M sodium chloride, […], 0.003 M sodium phosphate monobasic; pH 7.4) to remove the OCT before being transferred to 30% sucrose solution for storage at 4° C. At room temperature (RT), sections were washed three times for 5 min each in Tris-buffered saline (TBS; 0.1 M tris base, 0.15 M NaCl; pH 7.4) to remove sucrose residue. Tissue was then blocked in 0.3% TBST (1×TBS solution and 0.3% v/v Triton X-100) and 3% normal donkey serum (NDS; v/v) for two hours. The sections were then transferred to co-incubate at 4° C. in blocking buffer (3% NDS in 0.3% TBST; pH 7.4) containing primary antibodies. Following primary antibody or lectin incubation, sections were then washed thrice using TBS (10 mins; RT). To visualise each primary antibody staining, the tissue was then co-incubated in darkness with the fluorescent-conjugated secondary antibodies (1:500; 2 hrs; RT) against the species of the primary antibodies. Tissues were then washed three times in TBS (10 mins; RT) whilst protected from light. A final wash in Tris non-saline (TNS; 0.5 M Tris, pH 7.6) was given to reduce precipitation before air-drying. Tissues were mounted on Superfrost Plus slides, air-dried and coverslipped with the mounting medium FluorSaveTM Reagent (EMD Millipore). Lectins: biotinylated Wisteria floribunda agglutinin (bio-WFA), biotinylated hyaluronan binding protein (bHABP). […] PNNi treatment was consequently investigated in vivo, with short-term administration (10 days) via either oral feeding or intraperitoneal (i.p.) injection twice daily. […] Quantification in the dorsal horn of the spinal cord illustrated that ten days of oral PNNi administration induced a partial removal of WFA-positive moieties to 71.0±7.20% of baseline ECM levels (t(3)=5.15, p=0.0142; FIG. 9P). […] As oral PNNi treatment is both non-invasive and generated sufficient effects on the neural ECM in vivo, the following PNNi dosing experiments with Lister Hooded rats used this method of administration.
# [2] = Nagy et al., 2015; cited from earlier work
# [3] = system: acute contusive spinal cord injury; test: Basso, Beattie and Bresnahan (BBB) HL locomotor open field test after moderate T9 contusion injury; assay type: in vivo, rat; details: daily oral treatment, 5 weeks after injury, vehicle ~10
# Procedure: Adult female Lister-hooded rats (200-250 g) were obtained from Charles River Laboratories (Canterbury, UK). Rats were housed in pairs in Central Biomedical Services (University of Leeds, UK) in a temperature-controlled environment in (20±1° C.), with a 12 hr light/dark cycle (lights on at 07:00). All procedures and experiments complied with the UK Animals (Scientific Procedures) Act 1986. Using isofluorane as an anaesthetic (5% in 02 for induction and 1-2% in 02 for the duration of the procedure), animals were shaved and sterilised. Vertebral segments T7-13 were exposed and a dorsal laminectomy was performed at T8. Vertebral levels T7 and T8 were stabilised whilst an Infinite Horizon impactor (Precision Systems and Instrumentation, LLC, Fairfax Station, Va.) was used to provide a 200 kdyn Cx (moderate injury) at the level of T9. Muscles were sutured and the skin was closed with autoclips. Analgesia ([…] Buprenorphine; 0.015 mg/kg; Henry Schein Animal Health, Dumfries, UK) and antibiotics (Baytril enrofloxacin; 2.5 mg/kg; Henry Schein Animal Heath, Dumfries, UK) were given via subcutaneous injection immediately post-surgery and for three days following surgery. […] HL locomotor ability was assessed at various time points throughout the acute SCI paradigm using the BBB HL locomotor scale. […] Each BBB test was simultaneously assessed by two individuals. […]
# [4] = system: rats, mice and rabbits; details: very high doses; cited from earlier work
structure (smiles),measurement,setting,value
"Cc1cc(=O)oc2cc(O)ccc12 [PNNi, 4-methylumbelliferone]","WFA-positive moieties, of baseline ECM levels","[1]; dorsal horn of the spinal cord, ten days oral",71.0±7.20%
same,"HAPLN-1 staining, of baseline levels","[1]; dorsal horn, short-term oral",68.3±8.09%
same,"staining with HA binding protein (HABP), of baseline levels","[1]; dorsal horn, short-term oral",64.0±5.84%
same,"PNNs (ACAN staining, HABP) after 10 days oral administration in intact rats","[1]; intact rats, 10 days oral",PNNs are reduced
same,WFA-positive binding throughout the CNS compared to non-treated animals,"[1]; ten days dosing, oral feeding or i.p. injection twice daily",sufficient in decreasing WFA-positive binding
same,chondroitin sulphate and hyaluronan in the spinal cord,[1]; ten-day non-invasive oral administration,down-regulates both chondroitin sulphate and hyaluronan
same,solubility in aqueous solution,[2],near insoluble
same,BBB score,[3],~15 scores
same,teratogenic effect,[4],does not seem to have a teratogenic effect
